Like-named read-outs stand apart in the source and are kept apart here.

One test deals with DoHH2. The experiment in a line: CellTiter-Glo proliferation/viability assay. Format: cell-based, human. Particulars: 48 hrs, read-out: DoHH2 EC50. (In general: Cellular ATP, detected with luciferase, serves as a proxy for viable cell number.)
The next test concerns Ramos. Nature of the test: CellTiter-Glo proliferation/viability assay. The test is classed as cell-based, human. Particulars: read-out: Ramos EC50.
For the next test, the target named is Src (Homo sapiens (Human), UniProt P12931). Particulars: read-out: Src IC50.
Sequence of Src (P12931 whole entry, looked up): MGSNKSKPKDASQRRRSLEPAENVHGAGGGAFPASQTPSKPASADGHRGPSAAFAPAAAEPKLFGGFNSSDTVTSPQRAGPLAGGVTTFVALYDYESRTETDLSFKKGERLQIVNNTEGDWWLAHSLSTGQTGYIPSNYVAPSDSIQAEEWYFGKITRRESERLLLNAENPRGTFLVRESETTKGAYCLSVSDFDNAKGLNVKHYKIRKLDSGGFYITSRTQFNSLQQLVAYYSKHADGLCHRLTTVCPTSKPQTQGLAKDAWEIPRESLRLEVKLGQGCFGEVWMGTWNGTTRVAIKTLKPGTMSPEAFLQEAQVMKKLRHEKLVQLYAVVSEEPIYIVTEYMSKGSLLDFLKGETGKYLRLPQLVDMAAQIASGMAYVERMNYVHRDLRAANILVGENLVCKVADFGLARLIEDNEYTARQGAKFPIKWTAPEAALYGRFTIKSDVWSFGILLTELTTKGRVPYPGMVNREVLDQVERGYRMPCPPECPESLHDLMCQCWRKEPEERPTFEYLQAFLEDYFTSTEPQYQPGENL
The target of a further test is Lyn (Homo sapiens (Human), UniProt P07948). Particulars: read-out: Lyn IC50.
Sequence of Lyn (P07948 whole entry): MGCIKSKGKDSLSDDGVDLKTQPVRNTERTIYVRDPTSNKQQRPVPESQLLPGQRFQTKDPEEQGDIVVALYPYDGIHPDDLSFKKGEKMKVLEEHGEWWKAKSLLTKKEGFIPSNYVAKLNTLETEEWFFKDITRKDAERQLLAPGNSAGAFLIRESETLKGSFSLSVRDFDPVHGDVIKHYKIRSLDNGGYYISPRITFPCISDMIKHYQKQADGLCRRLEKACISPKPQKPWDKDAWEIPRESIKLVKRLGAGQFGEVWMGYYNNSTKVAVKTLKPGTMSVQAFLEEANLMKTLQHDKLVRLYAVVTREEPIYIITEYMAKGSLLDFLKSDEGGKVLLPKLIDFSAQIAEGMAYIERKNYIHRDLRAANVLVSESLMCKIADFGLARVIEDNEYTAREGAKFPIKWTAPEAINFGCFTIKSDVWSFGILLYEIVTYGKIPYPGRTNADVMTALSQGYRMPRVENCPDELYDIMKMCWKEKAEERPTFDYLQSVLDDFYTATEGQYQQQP
The target of the next test is BTK (Homo sapiens (Human), UniProt Q06187).
Sequence of BTK (Q06187 whole entry): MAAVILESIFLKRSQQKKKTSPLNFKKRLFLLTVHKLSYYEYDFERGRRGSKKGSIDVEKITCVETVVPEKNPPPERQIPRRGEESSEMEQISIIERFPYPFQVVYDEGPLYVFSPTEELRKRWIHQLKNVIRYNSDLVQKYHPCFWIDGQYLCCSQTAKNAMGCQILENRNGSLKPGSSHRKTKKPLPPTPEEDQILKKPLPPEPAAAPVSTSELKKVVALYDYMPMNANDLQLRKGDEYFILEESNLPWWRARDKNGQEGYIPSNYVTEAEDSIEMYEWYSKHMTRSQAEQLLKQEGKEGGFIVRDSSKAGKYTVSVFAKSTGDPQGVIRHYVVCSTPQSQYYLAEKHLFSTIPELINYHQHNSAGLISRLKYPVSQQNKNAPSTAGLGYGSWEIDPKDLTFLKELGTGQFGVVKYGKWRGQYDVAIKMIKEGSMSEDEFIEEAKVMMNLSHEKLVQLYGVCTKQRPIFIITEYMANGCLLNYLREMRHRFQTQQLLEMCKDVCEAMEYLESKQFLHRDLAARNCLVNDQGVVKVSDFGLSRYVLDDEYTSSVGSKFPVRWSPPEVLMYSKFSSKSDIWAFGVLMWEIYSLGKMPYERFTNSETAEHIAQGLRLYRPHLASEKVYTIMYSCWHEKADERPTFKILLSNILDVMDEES

By EC50 is commonly meant the concentration needed to bring the measured effect to its halfway point. Usually IC50 stands for the point on the concentration scale where inhibition reaches its midpoint. Regarding `O=c1c(-c2c(F)cccc2F)cc2cnc(Nc3ccc(F)cn3)cc2n1CCCN1CCOCC1` [Compound 131, 3-(2,6-difluorophenyl)-7-((5-fluoropyridin-2-yl)amino)-1-(3-morpholinopropyl)-1,6-naphthyridin-2(1H)-one], the EC50 in the test on DoHH2 (Homo sapiens, DOHH-2) is less than 1 µM; in the test with Ramos (Homo sapiens, Ramos, 48 hrs), more than 10 µM. In addition, the IC50 at Src is less than 0.1 µM; on Lyn it was less than 0.1 µM; against BTK it was 0.1 to 1 µM.

As for `CCN(CC)CCOc1ccc(Nc2cc3c(cn2)cc(-c2ccccc2)c(=O)n3-c2ccncc2)nc1` [Compound 82, 7-[5-(2-Diethylamino-ethoxy)-pyridin-2-ylamino]-3-phenyl-1-pyridin-4-yl-1H-[1,6]naphthyridin-2-one], the EC50 in the test on DoHH2 (Homo sapiens, DOHH-2) is less than 1 µM; in the test on Ramos (Homo sapiens, Ramos, 48 hrs) it was more than 10 µM. The IC50 at Src is less than 0.1 µM; at Lyn, less than 0.1 µM; at BTK, 0.1 to 1 µM.

With `CCN(CC)CCOc1ccc(Nc2cc3c(cn2)cc(-c2ccccc2)c(=O)n3CC)cc1` [Compound 86], the concentration for a half-maximal effect (EC50) with DoHH2 (Homo sapiens, DOHH-2) was 1 to 10 µM; in the test with Ramos (Homo sapiens, Ramos, 48 h), more than 10 µM. The 50% inhibitory concentration (IC50) at Src is 1 µM; at Lyn, less than 0.1 µM.

For the compound `CCn1c(=O)c(-c2ccccc2)cc2cnc(NC3=NCCO3)cc21` [Compound 90], the EC50 with DoHH2 (Homo sapiens, DOHH-2) is more than 10 µM; in the test with Ramos (Homo sapiens, Ramos, 48 hrs), more than 10 µM. Moreover, the IC50 on BTK (read-out: BTK IC50) was more than 5 µM.

Take `CCN(CC)CCOc1ccc(Nc2cc3c(cn2)cc(-c2c(Cl)cccc2Cl)c(=O)n3C2CCOC2)nc1` (single isomer, unassigned) [Compound 146, (R or S)-3-(2,6-dichlorophenyl)-7-((5-(2-(diethylamino)ethoxy)pyridin-2-yl)amino)-1-(tetrahydrofuran-3-yl)-1,6-naphthyridin-2(1H)-one]: the concentration for a half-maximal effect (EC50) in the test on DoHH2 is less than 1 µM; in the test with Ramos (48 hrs), 1 to 10 µM. Moreover, the IC50 at Src, at Lyn and on BTK (read-out: BTK IC50) was less than 0.1 µM in each case.

Take `CCn1c(=O)c(-c2cc(OC)ccc2F)cc2cnc(Nc3ccc(N(C)C4CCN(C)CC4)cn3)cc21` [Compound 119, 1-ethyl-3-(2-fluoro-5-methoxyphenyl)-7-((5-(methyl(1-methylpiperidin-4-yl)amino)pyridin-2-yl)amino)-1,6-naphthyridin-2(1H)-one]: the EC50 in the test with DoHH2 (Homo sapiens, DOHH-2) is less than 1 µM; with Ramos (Homo sapiens, Ramos, 48 hrs), 1 to 10 µM. Further, on BTK, the 50% inhibitory concentration (IC50) was 0.1 to 1 µM.

Turning to `CCn1c(=O)c(-c2c(F)ccc(F)c2O)cc2cnc(Nc3ccc(N(C)C4CCN(C)CC4)cn3)cc21` [Compound 123, 3-(3,6-difluoro-2-hydroxyphenyl)-1-ethyl-7-((5-(methyl(1-methylpiperidin-4-yl)amino)pyridin-2-yl)amino)-1,6-naphthyridin-2(1H)-one], the EC50 with DoHH2 (Homo sapiens, DOHH-2) was less than 1 µM; with Ramos (Homo sapiens, Ramos, 48 hrs), 1 to 10 µM. Besides, the IC50 on Src, on Lyn and at BTK (read-out: BTK IC50) was less than 0.1 µM in each case.

With `CCN(CC)CCOc1ccc(Nc2cc3c(cn2)cc(-c2c(Cl)cccc2OC)c(=O)n3CC)nc1` [Compound 108, 3-(2-chloro-6-methoxyphenyl)-7-((5-(2-(diethylamino)ethoxy)pyridin-2-yl)amino)-1-ethyl-1,6-naphthyridin-2(1H)-one], the EC50 with DoHH2 (Homo sapiens, DOHH-2) is less than 1 µM; with Ramos (Homo sapiens, Ramos, 48 hrs), more than 10 µM. For the same compound, the IC50 at Src, at Lyn and at BTK (read-out: BTK IC50) was less than 0.1 µM in each case.

Consider `CCn1c(=O)c(CC(C)C)cc2cnc(Nc3ccc(C)cn3)cc21` [Compound 20, 1-Ethyl-3-isobutyl-7-(5-methyl-pyridin-2-ylamino)-1H-[1,6]naphth yridin-2-one], for which the EC50 in the test on DoHH2 (Homo sapiens, DOHH-2) is more than 10 µM; in the test with Ramos (Homo sapiens, Ramos, 48 h), more than 10 µM. Moreover, the IC50 is more than 5 µM on Src, more than 5 µM on Lyn and 0.1 to 1 µM against BTK.

In the case of `O=c1c(-c2c(F)cccc2F)cc2cnc(Nc3ccc(F)cn3)cc2n1-c1ccccc1` [Compound 81, 3-(2,6-difluorophenyl)-7-((5-fluoropyridin-2-yl)amino)-1-phenyl-1,6-naphthyridin-2(1H)-one], the EC50 is 1 to 10 µM with DoHH2 (Homo sapiens, DOHH-2) and more than 10 µM in the test with Ramos (Homo sapiens, Ramos, 48 h). The IC50 on Src and at Lyn was less than 0.1 µM throughout.

Turning to `O=c1c(-c2c(Cl)cccc2Cl)cc2cnc(Nc3ccc(F)cn3)cc2n1C1CCOC1` (single isomer, unassigned) [Compound 148, (R or S)-3-(2,6-dichlorophenyl)-7-((5-fluoropyridin-2-yl)amino)-1-(tetrahydrofuran-3-yl)-1,6-naphthyridin-2(1H)-one], the EC50 in the test with DoHH2 is less than 1 µM; with Ramos (48 hrs) it was more than 10 µM. The IC50 on Src, on Lyn and at BTK (read-out: BTK IC50) was less than 0.1 µM throughout.

On to `O=c1c(-c2c(F)cccc2F)cc2cnc(Nc3ccc(F)cn3)cc2n1C1CCOCC1` [Compound 80, 3-(2,6-difluorophenyl)-7-((5-fluoropyridin-2-yl)amino)-1-(tetrahydro-2H-pyran-4-yl)-1,6-naphthyridin-2(1H)-one], for which the 50% effective concentration (EC50) with DoHH2 (Homo sapiens, DOHH-2) was less than 1 µM; in the test with Ramos (Homo sapiens, Ramos, 48 h), more than 10 µM. For the same compound, the values for the half-inhibitory concentration (IC50) on Src and at Lyn were more than 5 µM and less than 0.1 µM, respectively.

As for `CCOC(=O)/C=C/c1cc2cnc(Nc3ccc(C)cn3)cc2n(CC)c1=O` [Compound 38], the EC50 in the test with DoHH2 (Homo sapiens, DOHH-2) was more than 10 µM; in the test on Ramos (Homo sapiens, Ramos, 48 hrs), more than 10 µM. The IC50 on Src, on Lyn and on BTK (read-out: BTK IC50) was more than 5 µM throughout.

As for `CCn1c(=O)c(-c2ccccc2)cc2cnc(Nc3cccnn3)cc21` [Compound 112, 1-ethyl-3-phenyl-7-(pyridazin-3-ylamino)-1,6-naphthyridin-2(1H)-one], the EC50 in the test with DoHH2 (Homo sapiens, DOHH-2) is more than 10 µM; in the test on Ramos (Homo sapiens, Ramos, 48 h) it was more than 10 µM. Also, the IC50 on Src is more than 5 µM; on Lyn, more than 5 µM; at BTK it was 1 to 5 µM.

For the compound `CCN(CC)CCOc1ccc(Nc2cc3c(cn2)cc(-c2c(F)cccc2F)c(=O)n3C2CCOC2)nc1` (single isomer, unassigned) [Compound 144, (R or S)-7-((5-(2-(diethylamino)ethoxy)pyridin-2-yl)amino)-3-(2,6-difluorophenyl)-1-(tetrahydrofuran-3-yl)-1,6-naphthyridin-2(1H)-one], the EC50 in the test with DoHH2 is less than 1 µM; with Ramos (48 hrs) it was 1 to 10 µM. Also, the IC50 at Src, at Lyn and on BTK (read-out: BTK IC50) was less than 0.1 µM each time.

For `CCn1c(=O)c(-c2ccccc2)cc2cnc(NC3=NCCS3)cc21` [Compound 91], the EC50 in the test with DoHH2 (Homo sapiens, DOHH-2) was more than 10 µM; with Ramos (Homo sapiens, Ramos, 48 hrs), more than 10 µM. Moreover, the IC50 on BTK (read-out: BTK IC50) was more than 5 µM.

In the case of `CCn1c(=O)c(-c2ccccc2)cc2cnc(Nc3ncc(C)o3)cc21` [Compound 9, 1-Ethyl-7-(5-methyl-oxazol-2-ylamino)-3-phenyl-1H-[1,6]naphthyridin-2-one], the concentration for a half-maximal effect (EC50) with DoHH2 (Homo sapiens, DOHH-2) is 1 to 10 µM; in the test with Ramos (Homo sapiens, Ramos, 48 h) it was more than 10 µM. In addition, the IC50 on Src was more than 5 µM; on Lyn, more than 5 µM; against BTK, 1 to 5 µM.

`CN1CCC(N(C)c2ccc(Nc3cc4c(cn3)cc(-c3c(F)cccc3F)c(=O)n4C3CCCC3)nc2)CC1` [Compound 139, 1-cyclopentyl-3-(2,6-difluorophenyl)-7-((5-(methyl(1-methylpiperidin-4-yl)amino)pyridin-2-yl)amino)-1,6-naphthyridin-2(1H)-one]: the EC50 with DoHH2 (Homo sapiens, DOHH-2) is less than 1 µM; in the test with Ramos (Homo sapiens, Ramos, 48 h), 1 to 10 µM. Further, the IC50 on Src, on Lyn and on BTK (read-out: BTK IC50) was less than 0.1 µM throughout.

`CCn1c(=O)c(-c2cccs2)cc2cnc(Nc3ccc(C)cn3)cc21` [Compound 11, 1-Ethyl-7-(5-methyl-pyridin-2-ylamino)-3-thiophen-2-yl-1H-[1,6]naphthyridin-2-one]: the EC50 in the test on DoHH2 (Homo sapiens, DOHH-2) is more than 10 µM; in the test with Ramos (Homo sapiens, Ramos, 48 hrs) it was more than 10 µM. In addition, the figures for the IC50 at Src, on Lyn and on BTK were more than 5 µM, more than 5 µM and 0.1 to 1 µM, respectively.

Regarding `CCn1c(=O)c(-c2ccsc2)cc2cnc(Nc3ccc(C)cn3)cc21` [Compound 10, 1-Ethyl-7-(5-methyl-pyridin-2-ylamino)-3-thiophen-3-yl-1H-[1,6]naphthyridin-2-one], the EC50 in the test with DoHH2 (Homo sapiens, DOHH-2) was more than 10 µM; with Ramos (Homo sapiens, Ramos, 48 hrs), more than 10 µM. For the same compound, the IC50 at Src was more than 5 µM; at Lyn, more than 5 µM; at BTK it was 1 to 5 µM.

`CCn1c(=O)c(-c2cccc(F)c2)cc2cnc(Nc3ccc(C)cn3)cc21` [Compound 29, 1-ethyl-3-(3-fluorophenyl)-7-(5-methylpyridin-2-ylamino)-1,6-naphthyridin-2(1H)-one]: the concentration giving a half-maximal response (EC50) with DoHH2 (Homo sapiens, DOHH-2) was more than 10 µM; in the test with Ramos (Homo sapiens, Ramos, 48 hrs), more than 10 µM. Moreover, the IC50 at Src, at Lyn and on BTK (read-out: BTK IC50) was more than 5 µM in each case.

For the compound `CCn1c(=O)ccc2cnc(Nc3ccc(C)cn3)cc21` [Compound 87], the EC50 is 1 to 10 µM in the test on DoHH2 (Homo sapiens, DOHH-2) and 1 to 10 µM with Ramos (Homo sapiens, Ramos, 48 h). The IC50 at Src was more than 5 µM; at Lyn it was more than 5 µM; against BTK it was 1 to 5 µM.

On to `CCn1c(=O)c(-c2c(O)cccc2Cl)cc2cnc(Nc3ccc(N(C)C4CCN(C)CC4)cn3)cc21` [Compound 122, 3-(2-chloro-6-hydroxyphenyl)-1-ethyl-7-((5-(methyl(1-methylpiperidin-4-yl)amino)pyridin-2-yl)amino)-1,6-naphthyridin-2(1H)-one], for which the EC50 in the test with DoHH2 (Homo sapiens, DOHH-2) is less than 1 µM; in the test on Ramos (Homo sapiens, Ramos, 48 hrs) it was 1 to 10 µM. For the same compound, the IC50 on Src, on Lyn and at BTK (read-out: BTK IC50) was less than 0.1 µM in each case.

As to `CCN(CC)CCOc1ccc(Nc2cc3c(cn2)cc(C(C)C)c(=O)n3C2CC2)nc1` [Compound 36, 1-Cyclopropyl-7-[5-(2-diethylamino-ethoxy)-pyridin-2-ylamino]-3-isopropyl-1H-[1,6]naphthyridin-2-one], the EC50 is 1 to 10 µM in the test with DoHH2 (Homo sapiens, DOHH-2) and more than 10 µM in the test on Ramos (Homo sapiens, Ramos, 48 h).

For the origin of these results see patent US9714247B2, “Multiple kinase pathway inhibitors” (Mannkind Corporation, priority 2012, dated 2017).
